In patent US4774381A, “Herbicide resistant tobacco” (E. I. Du Pont de Nemours and Company, priority 1985, dated 1988):

Key:
[1] = target: T1, acetolactate synthase (ALS), H1 extract (Nicotiana tabacum, UniProt P09114); assay: ALS activity assay in cell extracts; type: biochemical
T1 construct: ALS activity was then assayed in extracts prepared from these cell suspension cultures; endogenous in cells; host or cells: N. tabacum cv; Xanthi cell suspension cultures (H1 parental haploid line; +/+ segregants), 0-50% ammonium sulfate fraction of the extract
T1 sequence (P09114 92-664): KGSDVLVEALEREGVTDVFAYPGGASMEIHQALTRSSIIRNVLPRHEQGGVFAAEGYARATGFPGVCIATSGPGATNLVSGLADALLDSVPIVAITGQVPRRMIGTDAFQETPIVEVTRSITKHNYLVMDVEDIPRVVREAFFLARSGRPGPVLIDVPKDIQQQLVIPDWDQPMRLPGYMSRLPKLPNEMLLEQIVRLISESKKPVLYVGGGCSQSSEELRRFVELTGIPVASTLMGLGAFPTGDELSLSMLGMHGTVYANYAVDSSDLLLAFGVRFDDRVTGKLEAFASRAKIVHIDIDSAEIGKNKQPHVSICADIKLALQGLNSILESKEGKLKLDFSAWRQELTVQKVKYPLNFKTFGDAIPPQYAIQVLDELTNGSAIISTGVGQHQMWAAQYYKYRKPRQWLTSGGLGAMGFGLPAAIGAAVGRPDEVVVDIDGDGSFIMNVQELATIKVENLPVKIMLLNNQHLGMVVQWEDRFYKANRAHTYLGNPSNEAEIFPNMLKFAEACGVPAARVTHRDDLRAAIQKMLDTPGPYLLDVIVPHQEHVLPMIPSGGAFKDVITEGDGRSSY
Experimental: Cell suspension cultures of normal (H1) and homozygous mutant (Isolate 16) cell lines were washed in C1 liquid medium. After washing, cells were extracted in a 100 mM potassium phosphate buffer (pH 7.5) containing 0.5 mM MgCl2, 1 mM sodium pyruvate, 0.5 mM thiamine pyrophosphate, 10 micromolar flavine-adenine dinucleotide (FAD) and 10 percent (by volume) glycerol. Polyclar AT (BDH Chemicals Ltd) was added to a final concentration of 250 mg per gram fresh weight of tissue. After centrifugation at 27,000xg for 15 minutes at 4°, an equal volume of a saturated solution of amminium sulfate was added to the supernatant fraction. The resultant precipitate (representing a 0 to 50 percent ammonium sulfate fraction) was redissolved in 100 mM potassium phosphate buffer (pH 7.5) containing 0.5 mM MgCl2, 1 mM sodium pyruvate, and salts were removed by passage through a Sephadex G-25 (Pharmacia PD-10) column.
ALS activity was assayed in a total volume of 500 microliters containing 100 microliters of the column eluate, 65 mM potassium phosphate buffer (pH 7.5) containing 10 mM MgCl2, 40 mM sodium pyruvate, 250 micromolar thiamine pyrophosphate, 23 micromolar FAD, and 1, 5, 10, 50, 100, 500 or 1000 ppb chlorsulfuron or sulfometuron-methyl. After incubation at 30° for 90 minutes, 250 microliters of 6N H2 SO4 was added to each assay tube, and the tubes were incubated at 55° for 10 minutes to terminate the enzymatic reaction and achieve complete conversion of acetolactate to acetoin. Acetoin content was then measured by a modification of the procedure described by Westerfield, J. Biol. Chem. 161:495 (1945). To each tube was added sequentially 100 microliters 50 percent NaOH, 150 microliters 0.5 percent creatine, and 150 microliters 5 percent alpha-napthol (in 2.5N NaOH). Color development was accelerated by incubation at 55° for 10 minutes. Tubes were then centrifuged, and the optical density was read at 530 nm. Background optical densities, which were subtracted from the optical density values of the reactions, were determined for each extract from parallel assays to which the enzyme extract was added after the addition of 6N H2 SO4. Protein concentrations were measured with Bio-Rad Protein Assay reagent with bovine serum albumin as a standard. Data points and specific activities, which are set forth below and in FIG. 2, represent the average values of at least three independent determinations. ALS activities are presented in FIG. 2 as percent activity in the absence of herbicide.

H1 callus culture = assay: Callus growth on chlorsulfuron-supplemented medium; type: cell-based, Nicotiana tabacum; settings: chlorsulfuron at 5 ppb (14 nM); further: key: Callus cultures capable of growth on this medium are designated R (resistant); S denotes sensitive callus cultures that did not grow in the presence of the herbicide
Experimental: (§1) Table 7, below, indicates sensitivity to chlorsulfuron of ALS activities in progeny of an S4/+ heterozygote. Data are presented as percent of ALS activity in the absence of chlorsulfuron. Each number represents the average of at least three independent experiments. Callus cultures initiated from the individual isolates were tested for growth on medium supplemented with chlorsulfuron at 5 ppb (14 nM).

[2] = system: Isolate 1 (+/+) callus culture; assay: Callus growth on chlorsulfuron-supplemented medium; type: cell-based, Nicotiana tabacum; settings: chlorsulfuron at 5 ppb (14 nM); further: key: Callus cultures capable of growth on this medium are designated R (resistant); S denotes sensitive callus cultures that did not grow in the presence of the herbicide
Experimental: as §1

[3] = system: Isolate 10 (S4/+) callus culture; assay: Callus growth on chlorsulfuron-supplemented medium; type: cell-based, Nicotiana tabacum; settings: chlorsulfuron at 5 ppb (14 nM); further: key: Callus cultures capable of growth on this medium are designated R (resistant); S denotes sensitive callus cultures that did not grow in the presence of the herbicide
Experimental: as §1

[4] = system: Isolate 16 (S4/S4) callus culture; assay: Callus growth on chlorsulfuron-supplemented medium; type: cell-based, Nicotiana tabacum; settings: chlorsulfuron at 5 ppb (14 nM); further: key: Callus cultures capable of growth on this medium are designated R (resistant); S denotes sensitive callus cultures that did not grow in the presence of the herbicide
Experimental: as §1

[5] = system: Isolate 23 (S4/+) callus culture; assay: Callus growth on chlorsulfuron-supplemented medium; type: cell-based, Nicotiana tabacum; settings: chlorsulfuron at 5 ppb (14 nM)
Experimental: as §1

[6] = system: Isolate 24 (S4/+) callus culture; assay: Callus growth on chlorsulfuron-supplemented medium; type: cell-based, Nicotiana tabacum; settings: chlorsulfuron at 5 ppb (14 nM)
Experimental: as §1

[7] = system: Isolate 27 (S4/S4) callus culture; assay: Callus growth on chlorsulfuron-supplemented medium; type: cell-based, Nicotiana tabacum; settings: chlorsulfuron at 5 ppb (14 nM)
Experimental: as §1

[8] = system: Isolate 30 (S4/S4) callus culture; assay: Callus growth on chlorsulfuron-supplemented medium; type: cell-based, Nicotiana tabacum; settings: chlorsulfuron at 5 ppb (14 nM)
Experimental: as §1

[9] = system: Isolate 7 (+/+) callus culture; assay: Callus growth on chlorsulfuron-supplemented medium; type: cell-based, Nicotiana tabacum; settings: chlorsulfuron at 5 ppb (14 nM)
Experimental: as §1

[10] = system: Isolate 9 (S4/+) callus culture; assay: Callus growth on chlorsulfuron-supplemented medium; type: cell-based, Nicotiana tabacum; settings: chlorsulfuron at 5 ppb (14 nM)
Experimental: as §1

[11] = system: yeast Saccharomyces cerevisiae; settings: medium supplementation; cited from earlier work

Compound: COc1nc(C)nc(NC(=O)NS(=O)(=O)c2ccccc2Cl)n1 [Chlorsulfuron, chlorsulfuron]
- remaining ALS activity (% of uninhibited) at 0.01 ppm ([1]; 10 ppb, Isolate H1 (+), read-out: Uninhibited activity (%) in the Presence of Chlorsulfuron): 40%
- remaining ALS activity (% of uninhibited) at 0.03 ppm ([1]; 30 ppb, Isolate H1 (+), read-out: Uninhibited activity (%) in the Presence of Chlorsulfuron): 23%
- remaining ALS activity (% of uninhibited) at 0.1 ppm ([1]; 100 ppb, Isolate H1 (+), read-out: Uninhibited activity (%) in the Presence of Chlorsulfuron): 18%
- IC50 ([1]; H1 cell line extract, read-out: concentration inhibiting ALS activity 50 percent (converted)): ~14 nM
- Callus Phenotype (H1 callus culture): S
- Callus Phenotype [2]: S
- Callus Phenotype [3]: R
- Callus Phenotype [4]: R
- Callus Phenotype [5]: R
- Callus Phenotype [6]: R
- Callus Phenotype [7]: R
- Callus Phenotype [8]: R
- Callus Phenotype [9]: S
- Callus Phenotype [10]: R

Compound: COC(=O)c1ccccc1S(=O)(=O)NC(=O)Nc1nc(C)cc(C)n1 [Sulfometuron-methyl, sulfometuron-methyl]
- reversal of growth inhibition [11]: restored by addition of isoleucine, leucine, and valine
